Results: patent US20120238520A1, “Novel Medical Use” (priority 2009, published 2012)
Counter-ions that a name gives are not always drawn.

Experiments:
Format in all cases: in vivo, rat
rats = assay: Test solution instilled into airspaces of anesthetized, ventilated rats without injury-inducing agent; conditions: compound by itself, 10^−4 M in 5% albumin instilled into airspaces, any experimental group
Source text: (§1) The preparation of anesthetized, ventilated rats was used to carry out the below described examples. Techniques of the below described examples have been published (Frank J A, Gutierrez J A, Jones K D, et al.: Low tidal volume reduces epithelial and endothelial injury in acid-injured rat lungs. Am. J. Respir. Crit. Care Med. 165:242-249, 2002; Folkesson H G, Nitenberg G, Oliver B L, et al.: Upregulation of alveolar epithelial fluid transport after subacute lung injury in rats from bleomycin. Am. J. Physiol. 275:L478-490, 1998; Folkesson H G, Norlin A, Wang Y, et al., Dexamethasone and thyroid hormone pretreatment upregulate alveolar epithelial fluid clearance in adult rats. J. Appl. Physiol. 88: 416-424, 2000; and Norlin A, Lu L N, Guggino S E, et al., Contribution of amiloride-insensitive pathways to alveolar fluid clearance in adult rats. J. Appl. Physiol. 90: 1489-1496, 2001).
The methods used are published in the above given references. A test solution of 5% albumin with and without […] (2R,3R,4S,5R)-2-(6-amino-2-{[(1S)-2-hydroxy-1-(phenylmethyl)ethyl]amino}-9H-purin-9-yl)-5-(2-ethyl-2H-tetrazol-5-yl)tetrahydro-3,4-furandiol maleate dissolved in 0.9% NaCl was used and instilled into the airspaces of rats to measure alveolar fluid clearance with and without the injury-inducing agent (HCl, LPS, or E. coil, see below for details). […]

LPS-instilled rats = assay: LPS (endotoxin, biochemical injury) model of sepsis-induced acute lung injury in anesthetized, ventilated rats; conditions: rats 16 h after intratracheal LPS 5 mg/kg body wt, vs LPS alone
Source text: as §1, with “2001). […]” for “2001).”
To evaluate the effect of endotoxin (biochemical injury; a model of sepsis-induced acute lung injury), E. coli LPS at the concentration of 5 mg/kg body wt was given intratracheally (FIG. 1, top panel illustrates the time scheme used for LPS treatments). […] Blood was sampled for fluorescence and arterial blood gas measurements every 30 min throughout the experiment. […] Alveolar fluid clearance, extravascular lung water, and endothelial-epithelial barrier leak were determined.

[1] = tested on: live E. coli-instilled rats; assay: Live E. coli DH5α (biological injury) model of sepsis-induced acute lung injury in anesthetized, ventilated rats; conditions: rats 3 h after intratracheal live E. coli DH5α, vs E. coli alone
Experimental: The preparation of anesthetized, ventilated rats was used to carry out the below described examples. […]
To evaluate the effect of live E. coli (biological injury; a model of sepsis-induced acute lung injury), E. coli (serotype DH5α at the concentration of 10^8 cfu/ml was given intratracheally (FIG. 2). Rats were surgically prepared (anesthetized, tracheotomized, outfitted with a carotid artery catheter, and connected to a ventilator). The rats were ventilated for a 30 min baseline of stable blood gases. An instillation catheter was passed to rest just above the bronchial carina and 1 ml/kg body wt of the solution containing 10^8 cfu/ml E. coli DH5α was rapidly instilled into the lungs. The vascular tracer (FITC-labeled albumin) was given after 15 min stabilization time and the 5% albumin solution with and without (2R,3R,4S,5R)-2-(6-amino-2-{[(1S)-2-hydroxy-1-(phenylmethyl)ethyl]amino}-9H-purin-9-yl)-5-(2-ethyl-2H-tetrazol-5-yl)tetrahydro-3,4-furandiol maleate was instilled 2 h later into the distal airspaces of the lung. Blood was sampled for fluorescence and arterial blood gas measurements every 30 min throughout the experiment. […] Alveolar fluid clearance, extravascular lung water, and endothelial-epithelial barrier leak were determined.

HCl-instilled rats = assay: HCl (acid aspiration, chemical injury) model of acute lung injury in anesthetized, ventilated rats; conditions: rats 2 h after intratracheal HCl pH 1.5, vs HCl alone
Source text: as §1
The methods used are published in the above given references. […]
To evaluate the effect of HCl (chemical injury; a model of aspiration-induced acute lung injury), HCl at pH 1.5 was used (FIG. 1, bottom panel illustrates the time scheme used for HCl treatments). […] Blood was sampled for fluorescence and arterial blood gas measurements every 30 min throughout the experiment. […]

CCn1nnc([C@H]2O[C@@H](n3cnc4c(N)nc(N[C@H](CO)Cc5ccccc5)nc43)[C@H](O)[C@@H]2O)n1 [(2R,3R,4S,5R)-2-(6-amino-2-{[(1S)-2-hydroxy-1-(phenylmethyl)ethyl]amino}-9H-purin-9-yl)-5-(2-ethyl-2H-tetrazol-5-yl)tetrahydro-3,4-furandiol maleate]
edema formation measured as increased EVLW (extravascular lung water) (rats): believed not to result in edema formation
EVLW (extravascular lung water) (LPS-instilled rats; 10^−4 M compound in 5% albumin instilled into airspaces, FIG. 3 center): a reduction in EVLW was observed
ELW (excess lung water) reduced by (LPS-instilled rats; 10^−4 M compound instilled, FIG. 4 center): ~40%
EVLW (extravascular lung water) ([1]; 10^−4 M compound in 5% albumin instilled into airspaces, FIG. 3 right): a reduction in EVLW was observed
ELW (excess lung water) reduced by ([1]; 10^−4 M compound instilled, FIG. 4 right): ~40%
EVLW (extravascular lung water) (HCl-instilled rats; 10^−4 M compound in 5% albumin instilled into airspaces, FIG. 3 left): a reduction in EVLW was observed, albeit EVLW remained elevated
ELW (excess lung water) reduced by (HCl-instilled rats; 10^−4 M compound instilled, ELW remained elevated compared to control, FIG. 4 left): ~20%
